Measured values as given in patent US6914045B2, “Glycopeptide antibiotics” (Wyeth Holdings Corporation, priority 2001, dated 2005).
In brackets after ≈: the same amount, converted by molar mass. Values belong to the molecule of their own block, whether it stands above or below them.

Columns and labels:
Assay in all cases: in vitro antibacterial evaluation, MIC by broth dilution
Type in all cases: cell-based
[1] = test system: Enterococcus sp.
How it was run: (§1)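 Test organisms, which included recent clinical isolates resistant to methicillin, penicillin and/or vancomycin, were inoculated at 5×10^5 CFU/mL into Muller-Hinton II […] containing antibiotic at 64-0.06 μg/mL. Minimum inhibitory concentrations were then read as the lowest level inhibiting growth.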

[2] = test system: Streptococcus sp.
How it was run: as §1

[3] = test system: Staphylococcus sp.; details: broth dilution, 18 hours at 35° C.; for MIC Staphylococcus aureus (ATCC 29213): strain ATCC 29213; for MIC Staphylococcus aureus (GC 1131): strain GC 1131; for MIC Staphylococcus aureus (GC 3051): strain GC 3051; for MIC Staphylococcus aureus (GC 3053): strain GC 3053; for MIC Staphylococcus aureus (GC 4541): strain GC 4541; for MIC Staphylococcus aureus (GC 4542): strain GC 4542; for MIC Staphylococcus aureus (GC 4544): strain GC 4544; for MIC Staphylococcus aureus (GC 4545): strain GC 4545
How it was run: as §1

[4] = test system: Escherichia coli; details: 18 hours at 35° C.
How it was run: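 MIC is the lowest antibiotic concentration (tested 64-0.06 μg/mL) preventing growth of a 5×10^5 CFU/mL inoculum. Determined by broth dilution in Mueller-Hinton II medium following NCCLS standard M7-A2.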

[5] = broth dilution, 18 hours at 35° C.

MIC Enterococcus avium (GC 4558) ([1]; Enterococcus avium (GC 4558); broth dilution, 18 hours at 35° C.): 128 µg/mL (≈ 83.7 µM) | MIC Enterococcus faecalis (ATCC 29212) ([1]; Enterococcus faecalis (ATCC 29212); broth dilution, 18 hours at 35° C.): >128 µg/mL | MIC Enterococcus faecalis (GC 4552) ([1]; Enterococcus faecalis (GC 4552); broth dilution, 18 hours at 35° C.): >128 µg/mL | MIC Enterococcus faecalis (GC 4553) ([1]; Enterococcus faecalis (GC 4553); broth dilution, 18 hours at 35° C.): >128 µg/mL | MIC Enterococcus faecalis (GC 4554) ([1]; Enterococcus faecalis (GC 4554); broth dilution, 18 hours at 35° C.): >128 µg/mL | MIC Enterococcus faecalis (GC 6189) ([1]; Enterococcus faecalis (GC 6189); broth dilution, 18 hours at 35° C.): >128 µg/mL | MIC Enterococcus faecium (GC 2243) ([1]; Enterococcus faecium (GC 2243); broth dilution, 18 hours at 35° C.): >128 µg/mL | MIC Enterococcus faecium (GC 4556) ([1]; Enterococcus faecium (GC 4556); broth dilution, 18 hours at 35° C.): >128 µg/mL | MIC Enterococcus faecium (GC 4557) ([1]; Enterococcus faecium (GC 4557); broth dilution, 18 hours at 35° C.): 128 µg/mL (≈ 83.7 µM) | MIC Enterococcus avium (GC 4558) [1, 5]: 128 µg/mL (≈ 83.7 µM) | MIC Enterococcus faecalis (ATCC 29212) [1, 5]: >128 µg/mL | MIC Enterococcus faecalis (GC 2242) [1, 5]: >128 µg/mL | MIC Enterococcus faecalis (GC 2691) [1, 5]: >128 µg/mL | MIC Enterococcus faecalis (GC 3059) [1, 5]: >128 µg/mL | MIC Enterococcus faecalis (GC 4552) [1, 5]: >128 µg/mL | MIC Enterococcus faecalis (GC 4553) [1, 5]: >128 µg/mL | MIC Enterococcus faecalis (GC 4554) [1, 5]: >128 µg/mL | MIC Enterococcus faecalis (GC 6189) [1, 5]: >128 µg/mL | MIC Enterococcus faecium (GC 2243) [1, 5]: >128 µg/mL | MIC Enterococcus faecium (GC 4556) [1, 5]: >128 µg/mL | MIC Enterococcus faecium (GC 4557) [1, 5]: 128 µg/mL (≈ 83.7 µM) | MIC Enterococcus faecalis (GC 2242) ([1]; broth dilution, 18 hours at 35° C.; strain GC 2242): >128 µg/mL | MIC Enterococcus faecalis (GC 2691) ([1]; broth dilution, 18 hours at 35° C.; strain GC 2691): >128 µg/mL | MIC Enterococcus faecalis (GC 3059) ([1]; broth dilution, 18 hours at 35° C.; strain GC 3059): >128 µg/mL | MIC Streptococcus agalactiae (GC 4564) [2, 5]: >128 µg/mL | MIC Streptococcus pneumoniae (ATCC 6301) [2, 5]: >128 µg/mL | MIC Streptococcus pneumoniae (GC 1894) [2, 5]: 128 µg/mL (≈ 83.7 µM) | MIC Streptococcus pneumoniae (GC 4565) [2, 5]: >128 µg/mL | MIC Streptococcus pyogenes (GC 4563) [2, 5]: >128 µg/mL | MIC Streptococcus pneumoniae (ATCC 6301) ([2]; broth dilution, 18 hours at 35° C.; strain ATCC 6301): >128 µg/mL | MIC Streptococcus pneumoniae (GC 1894) ([2]; broth dilution, 18 hours at 35° C.; strain GC 1894): 128 µg/mL (≈ 83.7 µM) | MIC Streptococcus pyogenes (GC 4563) ([2]; broth dilution, 18 hours at 35° C.; strain GC 4563): >128 µg/mL | MIC Streptococcus agalactiae (GC 4564) ([2]; broth dilution, 18 hours at 35° C.; strain GC 4564): >128 µg/mL | MIC Streptococcus pneumoniae (GC 4565) ([2]; broth dilution, 18 hours at 35° C.; strain GC 4565): >128 µg/mL | MIC Coagulase Negative Staphylococcus (GC 4547) [3]: >128 µg/mL | MIC Coagulase Negative Staphylococcus (GC 4548) [3]: >128 µg/mL | MIC Coagulase Negative Staphylococcus (GC 4549) [3]: >128 µg/mL | MIC Coagulase Negative Staphylococcus (GC 4551) [3]: >128 µg/mL | MIC Staphylococcus aureus-SMITH (GC 4543) [3]: >128 µg/mL | MIC Staphylococcus aureus (ATCC 29213) [3]: >128 µg/mL | MIC Staphylococcus aureus (GC 1131) [3]: >128 µg/mL | MIC Staphylococcus aureus (GC 3051) [3]: >128 µg/mL | MIC Staphylococcus aureus (GC 3053) [3]: >128 µg/mL | MIC Staphylococcus aureus (GC 4541) [3]: >128 µg/mL | MIC Staphylococcus aureus (GC 4542) [3]: >128 µg/mL | MIC Staphylococcus aureus-SMITH (GC 4543) ([3]; strain GC 4543): >128 µg/mL | MIC Staphylococcus aureus (GC 4544) [3]: >128 µg/mL | MIC Staphylococcus aureus (GC 4545) [3]: >128 µg/mL | MIC Coagulase Negative Staphylococcus (GC 4547) ([3]; strain GC 4547): >128 µg/mL | MIC Coagulase Negative Staphylococcus (GC 4548) ([3]; strain GC 4548): >128 µg/mL | MIC Coagulase Negative Staphylococcus (GC 4549) ([3]; strain GC 4549): >128 µg/mL | MIC Coagulase Negative Staphylococcus (GC 4551) ([3]; strain GC 4551): >128 µg/mL | MIC Escherichia coli (ATCC 25922) [4]: >128 µg/mL | MIC Escherichia coli (GC 4559) [4]: >128 µg/mL | MIC Escherichia coli (GC 4560) [4]: >128 µg/mL
SMILES: CC(c1ccccc1)C1NC(=O)CNC(=O)C(CO)NC(=O)C(C(O)C2CN(c3nc4ccccc4o3)C(=N)N2C2OC(CO)C(O)C(O)C2O)NC(=O)C(C(O)C2CNC(=Nc3nc4ccccc4o3)N2)NC(=O)C(Cc2ccc(OC3OC(CO)C(OC4OC(CO)C(O)C(O)C4O)C(O)C3O)cc2)NC1=O (stereo not drawn) [Example 93, Cyclo[glycyl-β-methylphenylalanyl-O-(4-O-hexopyranosylhexopyranosyl)tyrosyl-3-[2-(1,3-benzoxazol-2-ylimino)imidazolidin-4-yl]seryl-3-[1-(1,3-benzoxaxol-2-yl)-3-hexopyranosyl-2-iminoimidazolidin-4-yl]serylseryl]]
MIC Staphylococcus haemolyticus (GC 4546) [3]: >128 µg/mL | MIC Staphylococcus haemolyticus (GC 4546) ([3]; strain GC 4546): >128 µg/mL

MIC Enterococcus faecalis (ATCC 29212) ([1]; strain ATCC 29212; broth dilution, 18 hours at 35° C.): >128 µg/mL | MIC Enterococcus faecalis (GC 2242) ([1]; strain GC 2242; broth dilution, 18 hours at 35° C.): >128 µg/mL | MIC Enterococcus faecium (GC 2243) ([1]; strain GC 2243; broth dilution, 18 hours at 35° C.): 128 µg/mL (≈ 117 µM) | MIC Enterococcus faecalis (GC 2691) ([1]; strain GC 2691; broth dilution, 18 hours at 35° C.): >128 µg/mL | MIC Enterococcus faecalis (GC 3059) ([1]; strain GC 3059; broth dilution, 18 hours at 35° C.): >128 µg/mL | MIC Enterococcus faecalis (GC 4552) ([1]; strain GC 4552; broth dilution, 18 hours at 35° C.): >128 µg/mL | MIC Enterococcus faecalis (GC 4553) ([1]; strain GC 4553; broth dilution, 18 hours at 35° C.): 64 µg/mL (≈ 58.3 µM) | MIC Enterococcus faecalis (GC 4554) ([1]; strain GC 4554; broth dilution, 18 hours at 35° C.): >128 µg/mL | MIC Enterococcus faecium (GC 4556) ([1]; strain GC 4556; broth dilution, 18 hours at 35° C.): >128 µg/mL | MIC Enterococcus faecium (GC 4557) ([1]; strain GC 4557; broth dilution, 18 hours at 35° C.): 16 µg/mL (≈ 14.6 µM) | MIC Enterococcus avium (GC 4558) ([1]; strain GC 4558; broth dilution, 18 hours at 35° C.): 128 µg/mL (≈ 117 µM) | MIC Enterococcus faecalis (GC 6189) ([1]; strain GC 6189; broth dilution, 18 hours at 35° C.): >128 µg/mL | MIC Streptococcus pneumoniae (ATCC 6301) ([2]; strain ATCC 6301; broth dilution, 18 hours at 35° C.): 128 µg/mL (≈ 117 µM) | MIC Streptococcus pneumoniae (GC 1894) ([2]; strain GC 1894; broth dilution, 18 hours at 35° C.): 64 µg/mL (≈ 58.3 µM) | MIC Streptococcus pyogenes (GC 4563) ([2]; strain GC 4563; broth dilution, 18 hours at 35° C.): 16 µg/mL (≈ 14.6 µM) | MIC Streptococcus agalactiae (GC 4564) ([2]; strain GC 4564; broth dilution, 18 hours at 35° C.): 64 µg/mL (≈ 58.3 µM) | MIC Streptococcus pneumoniae (GC 4565) ([2]; strain GC 4565; broth dilution, 18 hours at 35° C.): 128 µg/mL (≈ 117 µM) | MIC Staphylococcus aureus (ATCC 29213) [3]: 128 µg/mL (≈ 117 µM) | MIC Staphylococcus aureus (GC 1131) [3]: 128 µg/mL (≈ 117 µM) | MIC Staphylococcus aureus (GC 3051) [3]: 128 µg/mL (≈ 117 µM) | MIC Staphylococcus aureus (GC 3053) [3]: 128 µg/mL (≈ 117 µM) | MIC Staphylococcus aureus (GC 4541) [3]: 64 µg/mL (≈ 58.3 µM) | MIC Staphylococcus aureus (GC 4542) [3]: 128 µg/mL (≈ 117 µM) | MIC Staphylococcus aureus-SMITH (GC 4543) ([3]; strain GC 4543): 64 µg/mL (≈ 58.3 µM) | MIC Staphylococcus aureus (GC 4544) [3]: 128 µg/mL (≈ 117 µM) | MIC Staphylococcus aureus (GC 4545) [3]: 32 µg/mL (≈ 29.1 µM) | MIC Coagulase Negative Staphylococcus (GC 4547) ([3]; strain GC 4547): 16 µg/mL (≈ 14.6 µM) | MIC Coagulase Negative Staphylococcus (GC 4548) ([3]; strain GC 4548): 32 µg/mL (≈ 29.1 µM) | MIC Coagulase Negative Staphylococcus (GC 4549) ([3]; strain GC 4549): 4 µg/mL (≈ 3.64 µM) | MIC Coagulase Negative Staphylococcus (GC 4551) ([3]; strain GC 4551): 32 µg/mL (≈ 29.1 µM) | MIC Coagulase Negative Staphylococcus (GC 6257) ([3]; strain GC 6257): 8 µg/mL (≈ 7.28 µM) | MIC Escherichia coli (ATCC 25922) ([4]; strain ATCC 25922, broth dilution): 32 µg/mL (≈ 29.1 µM) | MIC Escherichia coli (GC 4559) ([4]; strain GC 4559, broth dilution): 32 µg/mL (≈ 29.1 µM) | MIC Escherichia coli (GC 4560) ([4]; strain GC 4560, broth dilution): 8 µg/mL (≈ 7.28 µM)
SMILES: CCCCCCC(=O)Nc1cc(CC2NC(=O)C(C(C)c3ccccc3)NC(=O)CNC(=O)C(CO)NC(=O)C(C(O)C3CNC(=N)N3C3OC(CO)C(O)C(O)C3O)NC(=O)C(C(O)C3CNC(=N)N3)NC2=O)ccc1O (stereo not drawn) [Example 16, Cyclo[glycyl-β-methylphenylalanyl-3-(heptanamido)tyrosyl-3-(2-iminoimidazolidin-4-yl)seryl-3-(3-hexopyranosyl-2-iminoimidazolidin-4-yl)serylseryl]]
MIC Staphylococcus haemolyticus (GC 4546) ([3]; strain GC 4546): 8 µg/mL (≈ 7.28 µM)
